In brackets after ≈: the same amount, converted by molar mass. Activity calls are given as the source filed them. The rule behind the calls is not given here.
Assays:
Fusobacterium mortiferum [1] = test: Minimum inhibitory concentration against Fusobacterium mortiferum (ATCC 63425) using agar method; format: functional
Corynebacterium sp. [2] = test: Minimum inhibitory concentration against Corynebacterium sp. (ATCC 68984) using agar method; format: functional
Porphyromonas gingivalis [3] = test: Minimum inhibitory concentration against Porphyromonas gingivalis sp.(ATCC D23C) using agar method; format: functional
Pasteurella sp. [4] = test: Minimum inhibitory concentration against Pasteurella sp.(ATCC 67777) using agar method; format: functional
Staphylococcus aureus [5] = test: Minimum inhibitory concentration against Staphylococcus aureus (ATCC NCTC 6571) using agar method; format: functional
Escherichia coli [6] = test: Minimum inhibitory concentration against Escherichia coli (ATCC NCTC 6571) using agar method; format: functional
Pasteurella sp. [7] = test: Minimum inhibitory concentration against Pasteurella sp.(ATCC 67535) using agar method; format: functional
Bacteroides ovatus [8] = test: Minimum inhibitory concentration against Bacteroides ovatus (ATCC 66640) using agar method; format: functional
[9] = tested on: Pseudoflavonifractor capillosus; test: Minimum inhibitory concentration against Bacteroides capillosus (ATCC 60802) using agar method; format: functional
Hoylesella oralis [10] = test: Minimum inhibitory concentration against Bacteroides oralis (ATCC 72708) using agar method; format: functional
Bacteroides uniformis [11] = test: Minimum inhibitory concentration against Bacteroides uniformis (ATCC 62723) using agar method; format: functional
Pasteurella multocida [12] = test: Minimum inhibitory concentration against Pasteurella multocida (ATCC 61096) using agar method; format: functional
Pasteurella sp. [13] = test: Minimum inhibitory concentration against Pasteurella sp.(ATCC 69527) using agar method; format: functional
Schaalia meyeri [14] = test: Minimum inhibitory concentration against Actinomyces meyeri (ATCC 61789) using agar method; format: functional
Pasteurella multocida [15] = test: Minimum inhibitory concentration against Pasteurella multocida (ATCC 63560) using agar method; format: functional
Prevotella buccae [16] = test: Minimum inhibitory concentration against Bacteroides buccae (ATCC 67792) using agar method; format: functional; details: Segatella buccae
Pasteurella sp. [17] = test: Minimum inhibitory concentration against Pasteurella sp.(ATCC 71886) using agar method; format: functional
Prevotella bivia [18] = test: Minimum inhibitory concentration against Bacteroides bivus (ATCC 64362) using agar method; format: functional
Pasteurella sp. [19] = test: Antibacterial activity against Pasteurella sp.(ATCC 67535) at a concentration of 200 ug/mL; Active; format: functional, organism-based
Porphyromonas canoris [20] = test: Antibacterial activity against Porphyromonas canoris (ATCC NCTC 12835) at a concentration of 200 ug/mL; Active; format: functional, organism-based
Pasteurella multocida [21] = test: Antibacterial activity against Pasteurella multocida (ATCC 61096) at a concentration of 200 ug/mL; not active; format: functional, organism-based
[22] = tested on: Pseudoflavonifractor capillosus; test: Antibacterial activity against Bacteroides capillosus (ATCC 60802) at a concentration of 200 ug/mL; not active; format: functional, organism-based
Schaalia meyeri [23] = test: Antibacterial activity against Actinomyces meyeri (ATCC 61789) at a concentration of 200 ug/mL; Active; format: functional, organism-based
Porphyromonas gingivalis [24] = test: Antibacterial activity against Porphyromonas gingivalis sp.(ATCC D23C) at a concentration of 200 ug/mL; Active; format: functional, organism-based
Bacteroides ovatus [25] = test: Antibacterial activity against Bacteroides ovatus (ATCC 66640) at a concentration of 200 ug/mL; Active; format: functional, organism-based
Pasteurella sp. [26] = test: Antibacterial activity against Pasteurella sp.(ATCC 71886) at a concentration of 200 ug/mL; not active; format: functional, organism-based
Propionibacterium [27] = test: Antibacterial activity against Propionibacterium sp.(ATCC 72661) at a concentration of 200 ug/mL; Active; format: functional, organism-based
Corynebacterium sp. [28] = test: Antibacterial activity against Corynebacterium sp. (ATCC 68984) at a concentration of 200 ug/mL; Active; format: functional, organism-based
Porphyromonas canoris [29] = test: Antibacterial activity against Porphyromonas canoris (ATCC NCTC 12836) at a concentration of 200 ug/mL; Active; format: functional, organism-based
Pasteurella sp. [30] = test: Antibacterial activity against Pasteurella sp.(ATCC 69527) at a concentration of 200 ug/mL; not active; format: functional, organism-based
Fusobacterium mortiferum [31] = test: Antibacterial activity against Fusobacterium mortiferum (ATCC 63425) at a concentration of 200 ug/mL; not active; format: functional, organism-based
Hoylesella oralis [32] = test: Antibacterial activity against Bacteroides oralis (ATCC 72708) at a concentration of 200 ug/mL; Active; format: functional, organism-based
Pasteurella sp. [33] = test: Antibacterial activity against Pasteurella sp.(ATCC 67777) at a concentration of 200 ug/mL; not active; format: functional, organism-based
Prevotella bivia [34] = test: Antibacterial activity against Bacteroides bivus (ATCC 64362) at a concentration of 200 ug/mL; not active; format: functional, organism-based
Escherichia coli [35] = test: Antibacterial activity against Escherichia coli (ATCC NCTC 6571) at a concentration of 200 ug/mL; not active; format: functional, organism-based
Actinomyces sp. [36] = test: Antibacterial activity against Actinomyces sp.(ATCC 70710) at a concentration of 200 ug/mL; Active; format: functional, organism-based
Pasteurella multocida [37] = test: Antibacterial activity against Pasteurella multocida (ATCC 63560) at a concentration of 200 ug/mL; not active; format: functional, organism-based
Staphylococcus aureus [38] = test: Antibacterial activity against Staphylococcus aureus (ATCC NCTC 6571) at a concentration of 200 ug/mL; Active; format: functional, organism-based
Fusobacterium sp. [39] = test: Antibacterial activity against Fusobacterium sp.(ATCC 74714) at a concentration of 200 ug/mL; not active; format: functional, organism-based
Prevotella buccae [40] = test: Antibacterial activity against Bacteroides buccae (ATCC 67792) at a concentration of 200 ug/mL; not active; format: functional, organism-based; details: Segatella buccae
Bacteroides uniformis [41] = test: Antibacterial activity against Bacteroides uniformis (ATCC 62723) at a concentration of 200 ug/mL; not active; format: functional, organism-based
Porphyromonas canoris [42] = test: Minimum inhibitory concentration against Porphyromonas canoris (ATCC NCTC 12835) using agar method; format: functional
Actinomyces sp. [43] = test: Minimum inhibitory concentration against Actinomyces sp.(ATCC 70710) using agar method; format: functional
Propionibacterium [44] = test: Minimum inhibitory concentration against Propionibacterium sp.(ATCC 72661) using agar method; format: functional
Porphyromonas canoris [45] = test: Minimum inhibitory concentration against Porphyromonas canoris (ATCC NCTC 12836) using agar method; format: functional
Fusobacterium sp. [46] = test: Minimum inhibitory concentration against Fusobacterium sp.(ATCC 74714) using agar method; format: functional, fusobacterium species
Porphyromonas gingivalis [47] = test: Antibacterial activity against Porphyromonas gingivalis sp.(ATCC D23C) at a concentration of 200 ug/mL; format: functional, organism-based
Bacteroides ovatus [48] = test: Antibacterial activity against Bacteroides ovatus (ATCC 66640) at a concentration of 200 ug/mL; not active; format: functional, organism-based
Hoylesella oralis [49] = test: Antibacterial activity against Bacteroides oralis (ATCC 72708) at a concentration of 200 ug/mL; not active; format: functional, organism-based
Staphylococcus aureus [50] = test: Antibacterial activity against Staphylococcus aureus (ATCC NCTC 6571) at a concentration of 200 ug/mL; not active; format: functional, organism-based
Pasteurella sp. [51] = test: Antibacterial activity against Pasteurella sp.(ATCC 67535) at a concentration of 200 ug/mL; not active; format: functional, organism-based
Actinomyces sp. [52] = test: Antibacterial activity against Actinomyces sp.(ATCC 70710) at a concentration of 200 ug/mL; not active; format: functional, organism-based
Propionibacterium [53] = test: Antibacterial activity against Propionibacterium sp.(ATCC 72661) at a concentration of 200 ug/mL; not active; format: functional, organism-based
Corynebacterium sp. [54] = test: Antibacterial activity against Corynebacterium sp. (ATCC 68984) at a concentration of 200 ug/mL; not active; format: functional, organism-based

MIC (Fusobacterium mortiferum [1]) [µg/mL]	MIC (Corynebacterium sp. [2]) [µg/mL]	MIC (Porphyromonas gingivalis [3]) [µg/mL]	MIC (Pasteurella sp. [4]) [µg/mL]	MIC (Staphylococcus aureus [5]) [µg/mL]	Structure (SMILES)	Activity (Porphyromonas canoris [20])	Activity (Pasteurella multocida [21])	Activity [22]	Activity (Schaalia meyeri [23])	Activity (Pasteurella sp. [26])	Activity (Porphyromonas canoris [29])	Activity (Pasteurella sp. [30])	Activity (Fusobacterium mortiferum [31])	Activity (Pasteurella sp. [33])	Activity (Prevotella bivia [34])	Activity (Escherichia coli [35])	Activity (Pasteurella multocida [37])	Activity (Fusobacterium sp. [39])	Activity (Prevotella buccae [40])	Activity (Bacteroides uniformis [41])	further results
> 50	12.5 (≈ 20 µM)	1.56 (≈ 2.49 µM)	1.56 (≈ 2.49 µM)	> 50	CCC[C@@H]1OC(=O)[C@@H](C)C[C@H](C)CCCCC(=O)CCC[C@@H](CC)CC/C=C(\COC)CC[C@@H](O)[C@@H](O)C[C@H](O)CNC1=O	–	–	–	–	–	–	–	–	–	–	–	–	–	–	–	MIC (Escherichia coli [6]): 3.12 µg/mL (≈ 4.98 µM); MIC (Pasteurella sp. [7]): 0.78 µg/mL (≈ 1.25 µM); MIC (Bacteroides ovatus [8]): 12.5 µg/mL (≈ 20 µM); MIC [9]: 12.5 µg/mL (≈ 20 µM); MIC (Hoylesella oralis [10]): 6.25 µg/mL (≈ 9.99 µM); MIC (Bacteroides uniformis [11]): 12.5 µg/mL (≈ 20 µM); MIC (Pasteurella multocida [12]): 1.56 µg/mL (≈ 2.49 µM); MIC (Pasteurella sp. [13]): 3.12 µg/mL (≈ 4.98 µM); MIC (Schaalia meyeri [14]): 12.5 µg/mL (≈ 20 µM); MIC (Pasteurella multocida [15]): 0.78 µg/mL (≈ 1.25 µM); MIC (Prevotella buccae [16]): > 50 µg/mL; MIC (Pasteurella sp. [17]): 0.78 µg/mL (≈ 1.25 µM); MIC (Prevotella bivia [18]): 6.25 µg/mL (≈ 9.99 µM)
–	–	–	–	–	CCC[C@H]1OC(=O)CCCCCCCCCCCCCC/C=C/C[C@H](O)[C@H](O)[C@@H](O)[C@H](O)[C@H](O)CNC1=O	Active	inactive	inactive	Active	inactive	Active	inactive	inactive	inactive	inactive	inactive	inactive	inactive	inactive	inactive	Activity (Pasteurella sp. [19]): Active; Activity (Porphyromonas gingivalis [24]): Active; Activity (Bacteroides ovatus [25]): Active; Activity (Propionibacterium [27]): Active; Activity (Corynebacterium sp. [28]): Active; Activity (Hoylesella oralis [32]): Active; Activity (Actinomyces sp. [36]): Active; Activity (Staphylococcus aureus [38]): Active
12.5 (≈ 20 µM)	> 50	25 (≈ 40.1 µM)	12.5 (≈ 20 µM)	> 50	CCC[C@@H]1OC(=O)[C@@H](C)C[C@H](C)CCCCC(=O)CCC[C@@H](CC)/C=C/C=C(\COC)CC[C@@H](O)[C@@H](O)C[C@H](O)CNC1=O	–	–	–	–	–	–	–	–	–	–	–	–	–	–	–	MIC (Porphyromonas canoris [42]): 25 µg/mL (≈ 40.1 µM); MIC (Escherichia coli [6]): 6.25 µg/mL (≈ 10 µM); MIC (Pasteurella sp. [7]): 12.5 µg/mL (≈ 20 µM); MIC (Actinomyces sp. [43]): > 50 µg/mL; MIC (Bacteroides ovatus [8]): > 50 µg/mL; MIC [9]: 25 µg/mL (≈ 40.1 µM); MIC (Hoylesella oralis [10]): > 50 µg/mL; MIC (Bacteroides uniformis [11]): > 50 µg/mL; MIC (Propionibacterium [44]): > 50 µg/mL; MIC (Porphyromonas canoris [45]): 25 µg/mL (≈ 40.1 µM); MIC (Pasteurella multocida [12]): > 50 µg/mL; MIC (Pasteurella sp. [13]): 25 µg/mL (≈ 40.1 µM); MIC (Fusobacterium sp. [46]): > 50 µg/mL; MIC (Schaalia meyeri [14]): > 50 µg/mL; MIC (Pasteurella multocida [15]): > 50 µg/mL; MIC (Prevotella buccae [16]): 12.5 µg/mL (≈ 20 µM); MIC (Pasteurella sp. [17]): 12.5 µg/mL (≈ 20 µM); MIC (Prevotella bivia [18]): > 50 µg/mL
–	–	–	–	–	CCC[C@@H]1OC(=O)CCCCCCCCCCCCCC/C=C(\C)CC[C@@H](O)[C@@H](O)C[C@H](O)CNC1=O	Active	inactive	inactive	Active	inactive	Active	inactive	inactive	inactive	inactive	inactive	inactive	inactive	inactive	inactive	Activity (Porphyromonas gingivalis [47]): inactive; Activity (Pasteurella sp. [19]): Active; Activity (Bacteroides ovatus [48]): inactive; Activity (Propionibacterium [27]): Active; Activity (Hoylesella oralis [49]): inactive; Activity (Corynebacterium sp. [28]): Active; Activity (Staphylococcus aureus [50]): inactive; Activity (Actinomyces sp. [36]): Active
–	–	–	–	–	CCC[C@@H]1OC(=O)CCCCCCCCCCCCCC/C=C/C[C@H](O)[C@H](O)[C@@H](O)[C@H](O)[C@H](O)CNC1=O	Active	inactive	inactive	Active	inactive	Active	inactive	inactive	inactive	inactive	inactive	inactive	inactive	inactive	inactive	Activity (Pasteurella sp. [51]): inactive; Activity (Porphyromonas gingivalis [47]): inactive; Activity (Bacteroides ovatus [48]): inactive; Activity (Actinomyces sp. [52]): inactive; Activity (Hoylesella oralis [49]): inactive; Activity (Staphylococcus aureus [50]): inactive; Activity (Propionibacterium [53]): inactive; Activity (Corynebacterium sp. [54]): inactive
